Experimental data reported in ChEMBL document CHEMBL1129859, “Synthesis and antibacterial activity of (1R, 5R, 6R)-2-tert-butyl-6-(1-hydroxyethyl)penem-3-carboxylic acid” (Bioorg Med Chem Lett, 1997).
Values after ≈ are worked out from the molar mass of the structure shown.

Experiments:
[1] = Half-life was determined; type: ADME; details: human
Serratia marcescens [2] = assay: Tested in vitro for the antibacterial activity against Serratia marcescens strain X 99; type: functional
Klebsiella [3] = assay: Tested in vitro for the antibacterial activity against Klebsiella sp. strain X 68; type: functional
Klebsiella [4] = assay: Tested in vitro for the antibacterial activity against Klebsiella sp. strain KAE; type: functional
Streptococcus pyogenes = assay: Tested in vitro for the antibacterial activity against Streptococcus pyogenes strain C 203; type: functional
Citrobacter freundii [5] = assay: Tested in vitro for the antibacterial activity against Citrobacter freundii strain CF 17; type: functional
Haemophilus influenzae [6] = assay: Tested in vitro for the antibacterial activity against Haemophilus influenzae (b-lac-) strain CL; type: functional
Staphylococcus aureus [7] = assay: Tested in vitro for the antibacterial activity against Staphylococcus aureus strain V 41; type: functional
Shigella sonnei = assay: Tested in vitro for the antibacterial activity against Shigella sonnei strain N 9; type: functional
Enterobacter cloacae [8] = assay: Tested in vitro for the antibacterial activity against Enterobacter cloacae strain EB 5; type: functional
Enterococcus [9] = assay: Tested in vitro for the antibacterial activity against Enterococcus sp. strain 2041; type: functional
Salmonella [10] = assay: Tested in vitro for the antibacterial activity against Salmonella sp. strain 1335; type: functional
Streptococcus pneumoniae = assay: Tested in vitro for the antibacterial activity against Streptococcus pneumoniae strain Park I; type: functional
Klebsiella aerogenes [11] = assay: Tested in vitro for the antibacterial activity against Enterobacter aerogenes strain C 32; type: functional
Escherichia coli [12] = assay: Tested in vitro for the antibacterial activity against Escherichia coli strain TEM; type: functional
Escherichia coli [13] = assay: Tested in vitro for the beta lactamase inhibition of Escherichia coli TEM; type: functional
Escherichia coli [14] = assay: Tested in vitro for the antibacterial activity against Escherichia coli strain N 10; type: functional
[15] = tested on: Staphylococcus epidermidis; assay: Tested in vitro for the antibacterial activity against Staphylococcus epidermidis strain 270; type: functional
Haemophilus influenzae [16] = assay: Tested in vitro for the antibacterial activity against Haemophilus influenzae (b-lac+) strain 76; type: functional
Klebsiella aerogenes [17] = assay: Tested in vitro for the antibacterial activity against Enterobacter aerogenes strain EB 17; type: functional
Morganella morganii = assay: Tested in vitro for the antibacterial activity against Morganella morganii strain PR 15; type: functional
Serratia marcescens [18] = assay: Tested in vitro for the antibacterial activity against Serratia marcescens strain SE 3; type: functional
Enterobacter cloacae [19] = assay: Tested in vitro for the antibacterial activity against Enterobacter cloacae strain 265 A; type: functional
Staphylococcus aureus [20] = assay: Tested in vitro for the antibacterial activity against Staphylococcus aureus strain S 13 E; type: functional
Providencia stuartii [21] = assay: Tested in vitro for the antibacterial activity against Providencia stuartii strain PR 33; type: functional
Klebsiella [22] = assay: Tested in vitro for the antibacterial activity against Klebsiella sp. strain X 26; type: functional
Enterococcus [23] = assay: Tested in vitro for the antibacterial activity against Enterococcus sp. strain X 66; type: functional
[24] = tested on: Staphylococcus epidermidis; assay: Tested in vitro for the antibacterial activity against Staphylococcus epidermidis strain 222; type: functional
Providencia rettgeri = assay: Tested in vitro for the antibacterial activity against Providencia rettgeri strain C 24; type: functional
Enterobacter cloacae [25] = assay: Tested in vitro for the beta lactamase inhibition of Enterobacter cloacae; type: functional, organism-based
Salmonella [26] = assay: Tested in vitro for the antibacterial activity against Salmonella sp. strain X 514; type: functional
Staphylococcus aureus [27] = assay: Tested in vitro for the antibacterial activity against Staphylococcus aureus strain X 1.1; type: functional
Acinetobacter = assay: Tested in vitro for the antibacterial activity against Acinetobacter sp. strain AC 12; type: functional
Escherichia coli [28] = assay: Tested in vitro for the antibacterial activity against Escherichia coli strain EC 14; type: functional
Staphylococcus aureus [29] = assay: Tested in vitro for the antibacterial activity against Staphylococcus aureus strain X 400; type: functional
Citrobacter freundii [30] = assay: Tested in vitro for the antibacterial activity against Citrobacter freundii strain CF17; type: functional
Providencia stuartii [31] = assay: […] Tested in vitro for the antibacterial activity against Providencia stuartii strain PR 33; type: functional

Compound	MIC (Serratia marcescens [2]) [mg/L]	MIC (Klebsiella [3]) [mg/L]	MIC (Klebsiella [4]) [mg/L]	MIC (Streptococcus pyogenes) [mg/L]	MIC (Haemophilus influenzae [6]) [mg/L]	MIC (Staphylococcus aureus [7]) [mg/L]	MIC (Shigella sonnei) [mg/L]	MIC (Enterobacter cloacae [8]) [mg/L]	MIC (Enterococcus [9]) [mg/L]	MIC (Salmonella [10]) [mg/L]	MIC (Streptococcus pneumoniae) [mg/L]	MIC (Klebsiella aerogenes [11]) [mg/L]	MIC (Escherichia coli [12]) [mg/L]	IC50 (Escherichia coli [13]) [µM]	MIC (Escherichia coli [14]) [mg/L]	MIC [15] [mg/L]	MIC (Haemophilus influenzae [16]) [mg/L]	MIC (Klebsiella aerogenes [17]) [mg/L]	MIC (Morganella morganii) [mg/L]	MIC (Serratia marcescens [18]) [mg/L]	also measured
C[C@@H](O)[C@H]1C(=O)N2C(C(=O)[O-])=C(C(C)(C)C)S[C@H]12.[K+]	128	64	64	0.12	8	1	64	128	32	128	0.12	128	128	0.05	64	0.5	8	128	32	128	half-life [1]: 16 days; MIC (Citrobacter freundii [5]): 128 mg/L; MIC (Enterobacter cloacae [19]): 128 mg/L; MIC (Staphylococcus aureus [20]): 4 mg/L; MIC (Providencia stuartii [21]): 32 mg/L; MIC (Klebsiella [22]): 8 mg/L; MIC (Enterococcus [23]): 16 mg/L; MIC [24]: 2 mg/L; MIC (Providencia rettgeri): 8 mg/L; IC50 (Enterobacter cloacae [25]): 0.3 µM; MIC (Salmonella [26]): 32 mg/L; MIC (Staphylococcus aureus [27]): 0.5 mg/L; MIC (Acinetobacter): 16 mg/L; MIC (Escherichia coli [28]): 128 mg/L; MIC (Staphylococcus aureus [29]): 4 mg/L
CC(C)(O/N=C(\C(=O)N[C@@H]1C(=O)N2C(C(=O)[O-])=C(C[n+]3ccccc3)CS[C@H]12)c1csc(N)n1)C(=O)O [CEFTAZIDIME]	0.12 (≈ 0.22 µM)	0.12 (≈ 0.22 µM)	0.5 (≈ 0.915 µM)	0.06 (≈ 0.11 µM)	0.06 (≈ 0.11 µM)	8 (≈ 14.6 µM)	0.03 (≈ 0.0549 µM)	0.12 (≈ 0.22 µM)	16 (≈ 29.3 µM)	0.25 (≈ 0.457 µM)	0.03 (≈ 0.0549 µM)	2 (≈ 3.66 µM)	0.03 (≈ 0.0549 µM)		0.06 (≈ 0.11 µM)	16 (≈ 29.3 µM)	0.03 (≈ 0.0549 µM)	0.12 (≈ 0.22 µM)	0.25 (≈ 0.457 µM)	0.06 (≈ 0.11 µM)	MIC (Citrobacter freundii [30]): 0.5 mg/L (≈ 0.915 µM); MIC (Providencia stuartii [31]): 0.06 mg/L (≈ 0.11 µM); MIC (Enterobacter cloacae [19]): 32 mg/L (≈ 58.5 µM); MIC (Staphylococcus aureus [20]): 64 mg/L (≈ 117 µM); MIC (Klebsiella [22]): 0.06 mg/L (≈ 0.11 µM); MIC (Enterococcus [23]): 128 mg/L (≈ 234 µM); MIC [24]: 16 mg/L (≈ 29.3 µM); MIC (Providencia rettgeri): 0.03 mg/L (≈ 0.0549 µM); MIC (Salmonella [26]): 0.06 mg/L (≈ 0.11 µM); MIC (Staphylococcus aureus [27]): 8 mg/L (≈ 14.6 µM); MIC (Acinetobacter): 1 mg/L (≈ 1.83 µM); MIC (Escherichia coli [28]): 0.03 mg/L (≈ 0.0549 µM); MIC (Staphylococcus aureus [29]): 64 mg/L (≈ 117 µM)
O=C(O)[C@H]1/C(=C/CO)O[C@@H]2CC(=O)N21 [CLAVULANIC ACID]														0.04							IC50 (Enterobacter cloacae [25]): 100 µM
C[C@@H](O)[C@H]1C(=O)N2C(C(=O)[O-])=C(C(C)(C)C)O[C@H]12.[K+]	16	2	4	0.06	0.5	1	4	32	16	4	0.03	8	4	3	4	4	0.5	32	8	64	MIC (Citrobacter freundii [5]): 16 mg/L; MIC (Enterobacter cloacae [19]): 32 mg/L; MIC (Staphylococcus aureus [20]): 1 mg/L; MIC (Providencia stuartii [21]): 4 mg/L; MIC (Klebsiella [22]): 1 mg/L; MIC (Enterococcus [23]): 2 mg/L; MIC [24]: 0.25 mg/L; MIC (Providencia rettgeri): 4 mg/L; IC50 (Enterobacter cloacae [25]): 0.002 µM; MIC (Salmonella [26]): 1 mg/L; MIC (Staphylococcus aureus [27]): 0.25 mg/L; MIC (Acinetobacter): 8 mg/L; MIC (Escherichia coli [28]): 4 mg/L; MIC (Staphylococcus aureus [29]): 2 mg/L
